Results on 17 compounds are retold here after patent US20240317708A1, “INHIBITORS OF TRANSGLUTAMINASES” (ZEDIRA GMBH, priority 2021, published 2024).

The IC50 is the concentration needed to halve the response being measured. What is called logD is the decadic logarithm of the distribution of all forms, ionised or not, between an organic phase and buffer at a given pH. As usually defined, the Papp is a coefficient for how fast a substance crosses the barrier. Higher therefore signals fast passage.

The target in data set [1] is T1, recombinant human transglutaminase 2 (Homo sapiens, UniProt P21980).
T1 construct: purchased Zedira T022
T1 sequence (P21980 1-687): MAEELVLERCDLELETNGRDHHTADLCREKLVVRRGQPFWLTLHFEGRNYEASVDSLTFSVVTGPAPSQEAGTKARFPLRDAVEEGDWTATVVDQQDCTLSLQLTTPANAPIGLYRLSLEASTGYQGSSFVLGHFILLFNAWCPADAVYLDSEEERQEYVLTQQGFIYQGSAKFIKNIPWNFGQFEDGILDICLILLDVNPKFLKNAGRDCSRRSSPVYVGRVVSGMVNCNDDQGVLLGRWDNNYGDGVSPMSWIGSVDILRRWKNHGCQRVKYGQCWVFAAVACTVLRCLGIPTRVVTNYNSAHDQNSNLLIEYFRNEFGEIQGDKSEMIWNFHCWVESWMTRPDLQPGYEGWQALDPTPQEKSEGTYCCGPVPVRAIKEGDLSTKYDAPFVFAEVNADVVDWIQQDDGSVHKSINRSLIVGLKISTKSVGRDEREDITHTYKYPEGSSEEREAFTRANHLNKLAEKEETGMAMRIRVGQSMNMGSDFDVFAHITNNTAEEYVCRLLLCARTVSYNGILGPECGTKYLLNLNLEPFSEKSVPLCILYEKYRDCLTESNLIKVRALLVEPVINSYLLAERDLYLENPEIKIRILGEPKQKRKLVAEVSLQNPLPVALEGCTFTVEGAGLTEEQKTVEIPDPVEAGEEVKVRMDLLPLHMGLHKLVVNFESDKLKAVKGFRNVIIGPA
The data set is described as follows: Transglutaminase assay (dansylcadaverine incorporation into dimethylcasein, DCC-assay). The following applies: recombinant human TG2 10 nM, dansylcadaverine/dimethylcasein, 37° C. It counts as biochemical. The method in brief:
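IC50 derived from fluorescence slope between 20 and 30 min (λex 330 nm, λem 500 nm, 37 °C), expressed relative to a 2% DMSO control. Reaction: 10 nM recombinant human TG2, 4 μM dimethylcasein, 16.7 μM dansylcadaverine, 10 mM CaCl2 and glutathione, pH 8.0.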

Data set [2] is described as follows: Log D shake flask method (octanol / PBS pH 7.4, HPLC). It counts as physicochemical. The following applies: octanol/phosphate-buffered saline (PBS); octanol / PBS pH 7.4, shake flask. As for the experimental part:
In order to classify the inventive compounds according to their lipophilicity, Log D values (distribution coefficient) were determined by means of the well-established shake flask method, measuring the partition of a compound between an octanol and phosphate-buffered saline (PBS, pH 7.4) by HPLC.

A short description of data set [3]: Caco-2 permeability assay (CacoReady kit). It counts as in vitro ADME. The following applies: human. In short, it runs like this: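 Caco-2 monolayer barrier, commercial ready-to-use kit, manufacturer protocol. Read-out: Papp.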

For `Cc1c(C(=O)N[C@@H](CC/C=C/C(=O)N(C)C)C(=O)Nc2cccn(CC(=O)NC34CC5CC(C)(CC(C)(C5)C3)C4)c2=O)oc2ccccc12` [III-77, (S,E)-N^7-(1-(2-(3,5-dimethyladamantan-1-amino)-2-oxoethyl)-2-oxo-1,2-dihydropyridin-3-yl)-N^1,N^1-dimethyl-6-(3-methylbenzofuran-2-carboxamido)hept-2-enediamide], the IC50 in data set [1] fell in the range of 25 to 250 nM. Also, the logD in data set [2] lay within 3 to 5. This compound also returned a Papp in data set [3] of 1 to 10 ×10⁻⁶ cm/s.

For `COC(=O)/C=C/CC[C@H](NC(=O)c1cncn1C)C(=O)Nc1cccn(CC23CC4CC(CC(C4)C2)C3)c1=O` [III-78, (S,E)-methyl 7-(1-(1-adamantylmethyl)-2-oxo-1,2-dihydropyridin-3-ylamino)-6-(1-methyl-1H-imidazole-5-carboxamido)-7-oxohept-2-enoate], in data set [1], the IC50 fell in the range of 250 to 1500 nM. Besides, the logD in data set [2] is 3 to 5. For the same compound, in data set [3], the apparent permeability coefficient (Papp) is under 1 ×10⁻⁶ cm/s.

Take `COC(=O)/C=C/CC[C@H](NC(=O)c1oc2ccccc2c1C)C(=O)Nc1cccn(CC23CC4CC(CC(C4)C2)C3)c1=O` [III-79, (S,E)-methyl 7-(1-(1-adamantylmethyl)-2-oxo-1,2-dihydropyridin-3-ylamino)-6-(3-methylbenzofuran-2-carboxamido)-7-oxohept-2-enoate]: the IC50 in data set [1] is 250 to 1500 nM. In data set [2], the pH-dependent lipophilicity (logD) is 3 to 5. In data set [3], this compound gave an apparent permeability (Papp) of 1 to 10 ×10⁻⁶ cm/s.

Turning to `COC(=O)/C=C/CC[C@H](NC(=O)c1oc2ccccc2c1C)C(=O)Nc1cccn(CC23CC4CC(CC(O)(C4)C2)C3)c1=O` [III-80, (6S,E)-methyl 7-(1-((3-hydroxy-1-adamantyl)methyl)-2-oxo-1,2-dihydropyridin-3-ylamino)-6-(3-methylbenzofuran-2-carboxamido)-7-oxohept-2-enoate], in data set [1], the IC50 lay within 250 to 1500 nM. This compound had a logD in data set [2] of 1 to 3. Besides, the apparent permeability coefficient (Papp) in data set [3] was under 1 ×10⁻⁶ cm/s.

`COC(=O)/C=C/CC[C@H](NC(=O)c1oc2ccccc2c1C)C(=O)Nc1cccn(CC23CC4CC(CC(Br)(C4)C2)C3)c1=O` [III-81, (6S, E)-methyl 7-(1-((3-bromo-1-adamantyl)methyl)-2-oxo-1,2-dihydropyridin-3-ylamino)-6-(3-methylbenzofuran-2-carboxamido)-7-oxohept-2-enoate]: the IC50 in data set [1] is 250 to 1500 nM. Besides, the log distribution coefficient (logD) in data set [2] fell in the range of 3 to 5. In data set [3], this compound displayed a Papp of 1 to 10 ×10⁻⁶ cm/s.

On to `COC(=O)/C=C/CC[C@H](NC(=O)c1oc2ccccc2c1C)C(=O)Nc1cccn(CC2C3CC4CC(C3)CC2C4)c1=O` (stereo partly drawn) [III-82, (S,E)-methyl 7-(1-(2-adamantylmethyl)-2-oxo-1,2-dihydropyridin-3-ylamino)-6-(3-methylbenzofuran-2-carboxamido)-7-oxohept-2-enoate], for which the half-maximal inhibitory concentration (IC50) in data set [1] was in the range of 250 to 1500 nM. This compound displayed a pH-dependent lipophilicity (logD) in data set [2] of 3 to 5. In addition, the apparent permeability coefficient (Papp) in data set [3] lay in the range of 1 to 10 ×10⁻⁶ cm/s.

Turning to `COC(=O)/C=C/CC[C@H](NC(=O)c1cccnc1)C(=O)Nc1cccn(CC(=O)NC2C3CC4CC(C3)CC2C4)c1=O` (stereo partly drawn) [III-83, (S,E)-methyl 7-(1-(2-(2-adamantylamino)-2-oxoethyl)-2-oxo-1,2-dihydropyridin-3-ylamino)-6-(nicotinamido)-7-oxohept-2-enoate], the half-maximal inhibitory concentration (IC50) in data set [1] was under 25 nM. This compound gave a logD in data set [2] of 3 to 5. This compound came in with an apparent permeability (Papp) in data set [3] of under 1 ×10⁻⁶ cm/s.

On to `COC(=O)/C=C/CC[C@H](NC(=O)c1ccncc1)C(=O)Nc1cccn(CC(=O)NC2C3CC4CC(C3)CC2C4)c1=O` (stereo partly drawn) [III-84, (S,E)-methyl 6-(isonicotinamido)-7-(1-(2-(2-adamantylamino)-2-oxoethyl)-2-oxo-1,2-dihydropyridin-3-ylamino)-7-oxohept-2-enoate], for which the half-maximal inhibitory concentration (IC50) in data set [1] is under 25 nM. The compound also displayed a log distribution coefficient (logD) in data set [2] of 3 to 5. Further, the apparent permeability coefficient (Papp) in data set [3] is under 1 ×10⁻⁶ cm/s.

Regarding `COC(=O)/C=C/CC[C@H](NC(=O)c1ccnnc1)C(=O)Nc1cccn(CC(=O)NC2C3CC4CC(C3)CC2C4)c1=O` (stereo partly drawn) [III-85, (S,E)-methyl 7-(1-(2-(2-adamantylamino)-2-oxoethyl)-2-oxo-1,2-dihydropyridin-3-ylamino)-7-oxo-6-(pyridazine-4-carboxamido)hept-2-enoate], the IC50 in data set [1] was under 25 nM. Besides, the logD in data set [2] was in the range of 1 to 3. The compound further showed a Papp in data set [3] of under 1 ×10⁻⁶ cm/s.

In the case of `COC(=O)/C=C/CC[C@H](NC(=O)c1cccnn1)C(=O)Nc1cccn(CC(=O)NC2C3CC4CC(C3)CC2C4)c1=O` (stereo partly drawn) [III-86, (S,E)-methyl 7-(1-(2-(2-adamantylamino)-2-oxoethyl)-2-oxo-1,2-dihydropyridin-3-ylamino)-7-oxo-6-(pyridazine-3-carboxamido)hept-2-enoate], the IC50 in data set [1] is under 25 nM. This compound also yielded a logD in data set [2] of 1 to 3. The apparent permeability (Papp) in data set [3] is under 1 ×10⁻⁶ cm/s.

With `COC(=O)/C=C/CC[C@H](NC(=O)c1cncn1C)C(=O)Nc1cccn(CC(=O)NC23CC4CC(C)(CC(C)(C4)C2)C3)c1=O` [III-88, (S,E)-methyl 7-(1-(2-(3,5-dimethyladamantane)-2-oxoethyl)-2-oxo-1,2-dihydropyridin-3-ylamino)-6-(1-methyl-1H-imidazole-5-carboxamido)-7-oxohept-2-enoate], the IC50 in data set [1] is under 25 nM. Also, the log distribution coefficient (logD) in data set [2] is 1 to 3. In addition, in data set [3], the Papp is under 1 ×10⁻⁶ cm/s.

Take `CCOC(=O)/C=C/CC[C@H](NC(=O)c1oc2ccccc2c1C)C(=O)Nc1cccn(CC(=O)NC2C3CC4CC(C3)CC2C4)c1=O` (stereo partly drawn) [III-89, (S,E)-ethyl 7-(1-(2-(2-adamantylamino)-2-oxoethyl)-2-oxo-1,2-dihydropyridin-3-ylamino)-6-(3-methylbenzofuran-2-carboxamido)-7-oxohept-2-enoate]: in data set [1], the IC50 was under 25 nM. The logD in data set [2] fell in the range of 3 to 5. For the same compound, in data set [3], the Papp was in the range of 1 to 10 ×10⁻⁶ cm/s.

Regarding `Cc1c(C(=O)N[C@@H](CC/C=C/S(C)(=O)=O)C(=O)Nc2cccn(CC(=O)NC3C4CC5CC(C4)CC3C5)c2=O)oc2ccccc12` (stereo partly drawn) [III-90, (S,E)-N-(1-(1-(2-(2-adamantylamino)-2-oxoethyl)-2-oxo-1,2-dihydropyridin-3-ylamino)-6-(methylsulfonyl)-1-oxohex-5-en-2-yl)-3-methylbenzofuran-2-carboxamide], the IC50 in data set [1] is under 25 nM. This compound gave a logD in data set [2] of 1 to 3. Further, in data set [3], the apparent permeability coefficient (Papp) lay in the range of 1 to 10 ×10⁻⁶ cm/s.

As to `COC(=O)/C=C/CC[C@H](NC(=O)c1cncn1C)C(=O)Nc1cccn(CC(=O)NC23CC4(C)CC(C)(CC(C)(C4)C2)C3)c1=O` [III-91, (S,E)-methyl 7-(1-(2-(3,5,7-trimethyl-1-adamantylamino)-2-oxoethyl)-2-oxo-1,2-dihydropyridin-3-ylamino)-6-(1-methyl-1H-imidazole-5-carboxamido)-7-oxohept-2-enoate], the IC50 in data set [1] was under 25 nM. This compound also showed a log distribution coefficient (logD) in data set [2] of 3 to 5. The same compound had a Papp in data set [3] of 1 to 10 ×10⁻⁶ cm/s.

Turning to `COC(=O)/C=C/CC[C@H](NC(=O)c1oc2ccccc2c1C)C(=O)Nc1cccn(CC(=O)NC23CC4(C)CC(C)(CC(C)(C4)C2)C3)c1=O` [III-92, (S,E)-methyl 7-(1-(2-(3,5,7-trimethyl-1-adamantylamino)-2-oxoethyl)-2-oxo-1,2-dihydropyridin-3-ylamino)-6-(3-methylbenzofuran-2-carboxamido)-7-oxohept-2-enoate], in data set [1], the IC50 was under 25 nM. In data set [2], this compound came in with a log distribution coefficient (logD) of 3 to 5. The compound also displayed an apparent permeability coefficient (Papp) in data set [3] of 1 to 10 ×10⁻⁶ cm/s.

As to `COC(=O)/C=C/CC[C@H](NC(=O)c1cnnn1C)C(=O)Nc1cccn(CC(=O)NC23CC4(C)CC(C)(CC(C)(C4)C2)C3)c1=O` [III-93, (S,E)-methyl 7-(1-(2-(3,5,7-trimethyl-1-adamantylamino)-2-oxoethyl)-2-oxo-1,2-dihydropyridin-3-ylamino)-6-(1-methyl-1H-1,2,3-triazole-5-carboxamido)-7-oxohept-2-enoate], the concentration for half-maximal inhibition (IC50) in data set [1] was under 25 nM. In data set [2], this compound yielded a logD of 1 to 3. In data set [3], this compound came in with an apparent permeability (Papp) of 1 to 10 ×10⁻⁶ cm/s.

Consider `COC(=O)/C=C/CC[C@H](NC(=O)c1cc(Cl)sc1Cl)C(=O)Nc1cccn(CC(=O)NC23CC4(C)CC(C)(CC(C)(C4)C2)C3)c1=O` [III-94, (S,E)-methyl 6-(2,5-dichlorothiophene-3-carboxamido)-7-(1-(2-(3,5,7-trimethyl-1-adamantylamino)-2-oxoethyl)-2-oxo-1,2-dihydropyridin-3-ylamino)-7-oxohept-2-enoate], for which the IC50 in data set [1] was under 25 nM. Further, the pH-dependent lipophilicity (logD) in data set [2] was in the range of 3 to 5. In addition, the Papp in data set [3] was in the range of 1 to 10 ×10⁻⁶ cm/s.
